The results in this text go back to patent US20080300298A1, “Honokiol Derivates For the Treatment of Proliferative Disorders” (priority 2005, published 2008).

This assay has as its system MM.1S cells. Put plainly: [3H]-thymidine uptake with IL-6, IGF-1 or BMSCs. The assay is classed as cell-based, human. Particulars: 48 h. How it is done: DNA synthesis was measured as previously described, see, for example, Hideshima et al Blood. 2000; 96:2943-2950. Cells in 96-well culture plates were pulsed with 0.5 μCi/well of [^3H]-thymidine (Perkin Elmer, Boston, Mass.) during the last 8 h of culture, harvested onto glass filters with an automatic cell harvester (Cambridge Technology, Cambridge, Mass.), and counted using the LKB Betaplate scintillation counter (Wallac, Gaithersburg, Md.). All experiments were performed in triplicate.
Assessment of HNK-induced cytotoxicity against patient MM cells: Cytotoxicity of HNK against fresh MM cells was determined as previously determined, see, for example, Mitsiades et al Cancer Cell. 2004; 5:221-230. […] A CD38^high fraction enriched for MM cells was determined in side and forward scatter panel in each case. The expression of CD138 on gated cells was also evaluated. After HNK-treatment for 48 h, cells were harvested and percentage of CD38^high cells with or without HNK-treatment was evaluated. […] Cells were stained with propidium iodide (PI; 50 μg/mL; Sigma, St Louis, Mo.), and cell cycle profile was determined by using the program M software on an EPICS XL flow cytometer (Beckman Coulter, Hialeah, Fla.). […] Fluorescence intensity of TUNEL and APO 2.7 staining was determined using on EPICS XL flow cytometer. Cytotoxicity was determined by trypan blue exclusion assay. […]

With `C=CCc1ccc(O)c(-c2ccc(O)c(CC=C)c2)c1` [HNK, Honokiol], the “DNA synthesis triggered by binding to BMSCs” value (MM.1S on BMSCs of MM patients) was “abrogated”. Besides, where the note is “MM.1S”, the “growth inhibition in the presence of IL-6 or IGF-1” value is reported as “Neither IL-6 nor IGF-1 protected against HNK induced growth inhibition”.
